The CheMixHub viscosity set

Assay: xn = mol fraction of the nth substance listed

Nc1ccccc1 + CCCCCCO
viscosity [mPa·s], 100 kPa
Details | 293.15 K | 303.15 K | 313.15 K | 323.15 K
x1 = 0.0816 | 4.79 | 3.54 | 2.65 | 2.05
x1 = 0.1448 | – | 3.327 | 2.396 | –
x1 = 0.1533 | 4.4 | 3.29 | 2.48 | 1.92
x1 = 0.2422 | 4.1 | 3.09 | 2.33 | 1.82
x1 = 0.2758 | – | 2.857 | 1.969 | –
x1 = 0.3514 | 3.81 | 2.87 | 2.21 | 1.73
x1 = 0.4176 | – | 2.453 | 1.627 | –
x1 = 0.4449 | 3.64 | 2.74 | 2.12 | 1.66
x1 = 0.5246 | – | 2.213 | 1.457 | –
x1 = 0.5571 | 3.55 | 2.61 | 2.04 | 1.61
x1 = 0.6037 | – | 2.119 | 1.397 | –
x1 = 0.6483 | 3.52 | 2.59 | 2.03 | 1.61
x1 = 0.7131 | – | 2.101 | 1.432 | –
x1 = 0.7361 | 3.55 | 2.61 | 2.05 | 1.63
x1 = 0.8283 | – | 2.283 | 1.639 | –
x1 = 0.8542 | 3.73 | 2.72 | 2.16 | 1.71
x1 = 0.932 | – | 2.648 | 1.979 | –
x1 = 0.9356 | 4.03 | 2.93 | 2.32 | 1.84

CCNCC + CCCCCO
viscosity [mPa·s], 100 kPa
Details | x1 = 0.0806 | x1 = 0.1601 | x1 = 0.236 | x1 = 0.3486 | x1 = 0.4399 | x1 = 0.5596 | x1 = 0.6501 | x1 = 0.7397 | x1 = 0.8494 | x1 = 0.9401
293.15 K | 3.45 | 2.94 | 2.51 | 1.92 | 1.52 | 1.09 | 0.833 | 0.645 | 0.476 | 0.373
303.15 K | 2.61 | 2.22 | 1.87 | 1.43 | 1.12 | 0.79 | 0.618 | 0.496 | 0.386 | 0.323
313.15 K | 2 | 1.7 | 1.43 | 1.09 | 0.847 | 0.594 | 0.47 | 0.38 | 0.317 | 0.28
323.15 K | 1.54 | 1.31 | 1.09 | 0.83 | 0.64 | 0.45 | 0.357 | 0.3 | 0.261 | 0.245

Nc1ccccc1 + CCCCCO
viscosity [mPa·s]
Details | 293.15 K | 303.15 K | 313.15 K | 323.15 K
100 kPa, x1 = 0.0802 | 3.66 | 2.77 | 2.11 | 1.66
100 kPa, x1 = 0.1304 | – | 2.664 | 2.018 | –
100 kPa, x1 = 0.1536 | 3.42 | 2.6 | 2.01 | 1.57
100 kPa, x1 = 0.2363 | 3.26 | 2.48 | 1.93 | 1.52
100 kPa, x1 = 0.2524 | – | 2.309 | 1.697 | –
100 kPa, x1 = 0.3418 | 3.15 | 2.4 | 1.86 | 1.48
100 kPa, x1 = 0.3885 | – | 1.947 | 1.361 | –
100 kPa, x1 = 0.4371 | 3.11 | 2.34 | 1.84 | 1.47
100 kPa, x1 = 0.4944 | – | 1.724 | 1.147 | –
100 kPa, x1 = 0.5521 | 3.12 | 2.32 | 1.84 | 1.47
100 kPa, x1 = 0.5745 | – | 1.627 | 1.051 | –
100 kPa, x1 = 0.6518 | 3.21 | 2.37 | 1.88 | 1.5
100 kPa, x1 = 0.6878 | – | 1.619 | 1.031 | –
100 kPa, x1 = 0.7411 | 3.35 | 2.47 | 1.96 | 1.56
100 kPa, x1 = 0.8105 | – | 1.865 | 1.245 | –
100 kPa, x1 = 0.8487 | 3.63 | 2.66 | 2.12 | 1.67
100 kPa, x1 = 0.924 | – | 2.42 | 1.75 | –
100 kPa, x1 = 0.9425 | 4.04 | 2.95 | 2.32 | 1.83
101.33 kPa, x2 = 0.1207 | 3.714 | – | – | –
101.33 kPa, x2 = 0.2883 | 3.273 | – | – | –
101.33 kPa, x2 = 0.3221 | 3.227 | – | – | –
101.33 kPa, x2 = 0.3789 | 3.161 | – | – | –
101.33 kPa, x2 = 0.4074 | 3.138 | – | – | –
101.33 kPa, x2 = 0.5661 | 3.087 | – | – | –
101.33 kPa, x2 = 0.7695 | 3.258 | – | – | –
101.33 kPa, x2 = 0.8055 | 3.326 | – | – | –
101.33 kPa, x2 = 0.8557 | 3.444 | – | – | –
101.33 kPa, x2 = 0.9099 | 3.605 | – | – | –
101.33 kPa, x2 = 0.9484 | 3.756 | – | – | –
101.33 kPa, x2 = 0.9525 | 3.775 | – | – | –

Oc1ccc2ccccc2c1 + CCCCCOC(C)=O
Details | viscosity [mPa·s]
298.15 K, 101 kPa, x2 = 0.5 | 1.598
